According to patent US20040034106A1, “Treatment of anxiety disorders” (priority 2003, published 2004):
Structures can show the parent of a compound that is named as a salt.

Tested on: chronic fingernail biting
Test: Treatment of a subject with chronic fingernail biting (Example 1)
Type: in vivo, human
Procedure: A subject presented with chronic fingernail biting. The subject was treated with 60 mg of tomoxetine hydrochloride, twice daily for 13 consecutive days. […] The patient's chronic fingernail biting behavior resumed upon termination of treatment with tomoxetine hydrochloride.

## CNCC[C@@H](Oc1ccccc1C)c1ccccc1 [tomoxetine hydrochloride, (R)-(−)-N-methyl-3-(2-methylphenoxy)-3-phenylpropylamine]
60 mg twice daily for 13 consecutive days, healthy appearing fingernails except for one finger
  chronic fingernail biting at final assessment: significant improvement
After 60 mg twice daily for 13 consecutive days was stopped
  chronic fingernail biting behavior upon termination of treatment: resumed
